Results from patent publication US9353051B2, “Antiviral drugs for treatment or prevention of dengue infection” (Siga Technologies Inc., priority 2007, dated 2016).
Like-named read-outs stand apart in the source and are kept apart here.

System: Dengue-2 (Strain New Guinea C)
Assay: viral yield assay against Dengue-2 in Vero cells
Type: cell-based
Details: Dengue virus; for EC90: read-out: EC90 Yield Den-2
Method: Compounds that were active in the primary screen were also tested for activity in viral yield assays. […] Vero cells in 12-well plates were infected with dengue-2 virus at a multiplicity of infection (MOI) of 0.1, treated with compound (or DMSO as a control), incubated at 37° C., harvested 48 hours post infection and titered on Vero cells as described above. The EC50 was calculated through ExcelFit. Those compounds with activity below 1 μM are indicated with “A”, those with activity between 1 and 10 μM are indicated with “B”, those with activity between 10 and 25 μM with “C”, and those with activity above 25 μM are indicated with “D”.

[1] = Vero cells, MOI 0.1, harvested 48 hours post infection, read-out: Activity (anti-dengue 2 viral activity, EC50)
[2] = viral yield assay, Vero cells, read-out: EC50 Yield Den-2

SMILES: CCN(CC)S(=O)(=O)c1ccc(NC(=O)Cn2cnc3sccc3c2=O)cc1 [Compound 5, N-(4-Diethylsulfamoyl-phenyl)-2-(4-oxo-4H-thieno[2,3-d]pyrimidin-3-yl)-acetamide]
- EC50 [1]: 1 to 10 µM

SMILES: CCN(CC)S(=O)(=O)c1ccc(NC(=O)Cn2cnc3sc(C)c(C)c3c2=O)cc1 [Compound 10, N-(4-Diethylsulfamoyl-phenyl)-2-(5,6-dimethyl-4-oxo-4H-thieno[2,3-d]pyrimidin-3-yl)-acetamide]
- EC50 [1]: 1 to 10 µM
- EC50 [2]: 1.25 µM
- EC90 (viral yield assay, Vero cells): > 50 µM

SMILES: CCc1cc2c(=O)n(CC(=O)Nc3ccc(S(=O)(=O)N(CC)CC)cc3)cnc2s1 [Compound 11, N-(4-Diethylsulfamoyl-phenyl)-2-(6-ethyl-4-oxo-4H-thieno[2,3-d]pyrimidin-3-yl)-acetamide]
- EC50 [1]: 1 to 10 µM
- EC50 [2]: 4.9 µM
- EC90 (viral yield assay, Vero cells): > 50 µM

SMILES: CCN(CC)S(=O)(=O)c1ccc2c(c1)CCN2C(=O)Cn1cnc2ccccc2c1=O [Compound 17, 1-[2-(4-Oxo-4H-quinazolin-3-yl)-acetyl]-2,3-dihydro-1H-indole-5-sulfonic acid diethylamide]
- EC50 [1]: 1 to 10 µM
- EC50 [2]: 5.1 µM
- EC90 (viral yield assay, Vero cells): 12.1 µM

SMILES: CC1CCCC(C)N1S(=O)(=O)c1ccc(NC(=O)Cn2cnc3ccccc3c2=O)cc1 (stereo not drawn) [Compound 18, N-[4-(2,6-Dimethyl-piperidine-1-sulfonyl)-phenyl]-2-(4-oxo-4H-quinazolin-3-yl)-acetamide]
- EC50 [1]: 1 to 10 µM

SMILES: CC1CC(C)CN(S(=O)(=O)c2ccc(NC(=O)Cn3cnc4ccccc4c3=O)cc2)C1 (stereo not drawn) [Compound 19, N-[4-(3,5-Dimethyl-piperidine-1-sulfonyl)-phenyl]-2-(4-oxo-4H-quinazolin-3-yl)-acetamide]
- EC50 [1]: 1 to 10 µM

SMILES: CCN(CC)S(=O)(=O)c1ccc(OC)c(NC(=O)Cn2nnc3ccccc3c2=O)c1 [Compound 20, N-(5-Diethylsulfamoyl-2-methoxy-phenyl)-2-(4-oxo-4H-benzo[d][1,2,3]triazin-3-yl)-acetamide]
- EC50 (Vero, read-out: EC50 Yield Den-2): 1.3 µM
- EC90 (Vero): 20 µM
- EC50 [1]: 1 to 10 µM

SMILES: CCN(CC)S(=O)(=O)c1ccc(NC(=O)Cn2cnc3ccsc3c2=O)cc1 [Compound 22, N-(4-Diethylsulfamoyl-phenyl)-2-(4-oxo-4H-thieno[3,2-d]pyrimidin-3-yl)-acetamide]
- EC50 [1]: 10 to 25 µM

SMILES: CCN(CC)S(=O)(=O)c1ccc(NC(=O)Cn2cnc3cc(Cl)ccc3c2=O)cc1 [Compound 23, 2-(7-Chloro-4-oxo-4H-quinazolin-3-yl)-N-(4-diethylsulfamoyl-phenyl)-acetamide]
- EC50 [1]: 10 to 25 µM

SMILES: CCN(CC)S(=O)(=O)c1ccc(NC(=O)Cn2cnc3c(oc4ccccc43)c2=O)cc1 [Compound 24, N-(4-Diethylsulfamoyl-phenyl)-2-(4-oxo-4H-benzo [4,5]furo[3,2-d]pyrimidin-3-yl)-acetamide]
- EC50 [1]: 10 to 25 µM

SMILES: CCN(CC)S(=O)(=O)c1ccc(OC(C)C)c(NC(=O)CCn2nnc3ccccc3c2=O)c1 [Compound 25, N-(5-Diethylsulfamoyl-2-isopropoxy-phenyl)-3-(4-oxo-4H-benzo[d][1,2,3]triazin-3-yl)-propionamide]
- EC50 [1]: 10 to 25 µM

SMILES: CCN(CC)S(=O)(=O)c1ccc(NC(=O)Cn2cnc3c(C)cccc3c2=O)cc1 [Compound 26, N-(4-Diethylsulfamoyl-phenyl)-2-(8-methyl-4-oxo-4H-quinazolin-3-yl)-acetamide]
- EC50 [1]: 10 to 25 µM

SMILES: CCN(CC)S(=O)(=O)c1ccc(OC)c(NC(=O)CCn2nnc3ccccc3c2=O)c1 [Compound 27, N-(5-Diethylsulfamoyl-2-methoxy-phenyl)-3-(4-oxo-4H-benzo[d][1,2,3]triazin-3-yl)-propionamide]
- EC50 [1]: 10 to 25 µM

SMILES: CC1CCCC(C)N1S(=O)(=O)c1ccc(NC(=O)Cn2cnc3sccc3c2=O)cc1 (stereo not drawn) [Compound 28, N-[4-(2,6-Dimethyl-piperidine-1-sulfonyl)-phenyl]-2-(4-oxo-4H-thieno[2,3-d]pyrimidin-3-yl)-acetamide]
- EC50 [1]: 10 to 25 µM

SMILES: CCN(CC(=O)Nc1ccc(S(=O)(=O)N(CC)CC)cc1)Cc1nc2ccccc2c(=O)[nH]1 [Compound 29, N-(4-Diethylsulfamoyl-phenyl)-2-[ethyl-(4-oxo-3,4-dihydro-quinazolin-2-ylmethyl)-amino]-acetamide]
- EC50 [1]: 10 to 25 µM

SMILES: O=C(Cn1cnc2ccccc2c1=O)Nc1ccc(S(=O)(=O)NCC(F)(F)F)cc1 [Compound 30, 2-(4-Oxo-4H-quinazolin-3-yl)-N-[4-(2,2,2-trifluoro-ethylsulfamoyl)-phenyl]-acetamide]
- EC50 [1]: 10 to 25 µM

SMILES: O=C(Cn1cnc2ccccc2c1=O)Nc1ccc(S(=O)(=O)N2CCCC2)cc1 [Compound 31, 2-(4-Oxo-4H-quinazolin-3-yl)-N-[4-(pyrrolidine-1-sulfonyl)-phenyl]-acetamide]
- EC50 [1]: > 25 µM

SMILES: O=C(Cn1cnc2ccccc2c1=O)Nc1ccc(S(=O)(=O)Nc2nccs2)cc1 [Compound 32, 2-(4-Oxo-4H-quinazolin-3-yl)-N-[4-(thiazol-2-ylsulfamoyl)-phenyl]-acetamide]
- EC50 [1]: > 25 µM

SMILES: Cc1cc(C)nc(NS(=O)(=O)c2ccc(NC(=O)Cn3cnc4ccccc4c3=O)cc2)n1 [Compound 33, N-[4-(4,6-Dimethyl-pyrimidin-2-ylsulfamoyl)-phenyl]-2-(4-oxo-4H-quinazolin-3-yl)-acetamide]
- EC50 [1]: > 25 µM

SMILES: O=C(Cn1cnc2ccccc2c1=O)Nc1ccc(S(=O)(=O)N2CCOCC2)cc1 [Compound 34, N-[4-(Morpholine-4-sulfonyl)-phenyl]-2-(4-oxo-4H-quinazolin-3-yl)-acetamide]
- EC50 [1]: > 25 µM

SMILES: CCCCN(C)S(=O)(=O)c1ccc(NC(=O)Cn2cnc3ccccc3c2=O)cc1 [Compound 35, N-[4-(Butyl-methyl-sulfamoyl)-phenyl]-2-(4-oxo-4H-quinazolin-3-yl)-acetamide]
- EC50 [1]: > 25 µM

SMILES: CN(Cc1ccccc1)S(=O)(=O)c1ccc(NC(=O)Cn2cnc3ccccc3c2=O)cc1 [Compound 36, N-[4-(Benzyl-methyl-sulfamoyl)-phenyl]-2-(4-oxo-4H-quinazolin-3-yl)-acetamide]
- EC50 [1]: > 25 µM

SMILES: CC1CCCCN1S(=O)(=O)c1ccc(NC(=O)Cn2cnc3ccccc3c2=O)cc1 (stereo not drawn) [Compound 37, N-[4-(2-Methyl-piperidine-1-sulfonyl)-phenyl]-2-(4-oxo-4H-quinazolin-3-yl)-acetamide]
- EC50 [1]: > 25 µM

SMILES: NS(=O)(=O)c1ccc(NC(=O)Cn2cnc3ccccc3c2=O)cc1 [Compound 38, 2-(4-Oxo-4H-quinazolin-3-yl)-N-(4-sulfamoyl-phenyl)-acetamide]
- EC50 [1]: > 25 µM

SMILES: O=C(Cn1cnc2ccccc2c1=O)Nc1ccc(S(=O)(=O)Nc2ncccn2)cc1 [Compound 39, 2-(4-Oxo-4H-quinazolin-3-yl)-N-[4-(pyrimidin-2-ylsulfamoyl)-phenyl]-acetamide]
- EC50 [1]: > 25 µM

SMILES: O=C(Cn1cnc2ccccc2c1=O)Nc1ccc(S(=O)(=O)NCCCN2CCOCC2)cc1 [Compound 40, N-[4-(3-Morpholin-4-yl-propylsulfamoyl)-phenyl]-2-(4-oxo-4H-quinazolin-3-yl)-acetamide]
- EC50 [1]: > 25 µM

SMILES: O=C(Cn1cnc2ccccc2c1=O)Nc1ccc(S(=O)(=O)NCc2ccco2)cc1 [Compound 41, N-{4-[(Furan-2-ylmethyl)-sulfamoyl]-phenyl}-2-(4-oxo-4H-quinazolin-3-yl)-acetamide]
- EC50 [1]: > 25 µM

SMILES: CC(C)N(C)S(=O)(=O)c1ccc(NC(=O)Cn2cnc3ccccc3c2=O)cc1 [Compound 42, N-[4-(Isopropyl-methyl-sulfamoyl)-phenyl]-2-(4-oxo-4H-quinazolin-3-yl)-acetamide]
- EC50 [1]: > 25 µM
